Measurements taken from PMC7714403 (JCI Insight, 2020).

Tests used:
[1] = molecular target: TAO2 (Homo sapiens, UniProt Q9UL54); assay: KiNativ, OCI cells live cell; type: cell-based; conditions: 2 h, labeling site Lys2, peptide […]
[2] = molecular target: PITSLRE (Homo sapiens, UniProt P21127); assay: KiNativ, OCI cells live cell; type: cell-based; conditions: 2 h, labeling site Lys2, peptide […]
[3] = molecular target: CDK10 (Homo sapiens, UniProt Q15131); assay: KiNativ, OCI cells live cell; type: cell-based; conditions: 2 h, labeling site Lys2, peptide […]
[4] = tested on: MARK3, MARK4; assay: KiNativ, OCI cells live cell; type: cell-based, human; conditions: labeling site Lys1, peptide EVAIKIIDK
[5] = molecular target: NEK1 (Homo sapiens, UniProt Q96PY6); assay: KiNativ, OCI cells live cell; type: cell-based; conditions: 2 h, labeling site Lys2, peptide […]
[6] = molecular target: T1, JAK2 domain2 (Homo sapiens, UniProt O60674); assay: KiNativ, OCI cells live cell; type: cell-based; conditions: labeling site Activation Loop, peptide IGDFGLTKVLPQDKEYYK
T1 construct: JAK2 domain2

[7] = molecular target: PIK3C3 (Homo sapiens, UniProt Q8NEB9); assay: KiNativ, OCI cells live cell; type: cell-based; conditions: 2 h, labeling site ATP
Sequence of PIK3C3 (Q8NEB9 whole entry): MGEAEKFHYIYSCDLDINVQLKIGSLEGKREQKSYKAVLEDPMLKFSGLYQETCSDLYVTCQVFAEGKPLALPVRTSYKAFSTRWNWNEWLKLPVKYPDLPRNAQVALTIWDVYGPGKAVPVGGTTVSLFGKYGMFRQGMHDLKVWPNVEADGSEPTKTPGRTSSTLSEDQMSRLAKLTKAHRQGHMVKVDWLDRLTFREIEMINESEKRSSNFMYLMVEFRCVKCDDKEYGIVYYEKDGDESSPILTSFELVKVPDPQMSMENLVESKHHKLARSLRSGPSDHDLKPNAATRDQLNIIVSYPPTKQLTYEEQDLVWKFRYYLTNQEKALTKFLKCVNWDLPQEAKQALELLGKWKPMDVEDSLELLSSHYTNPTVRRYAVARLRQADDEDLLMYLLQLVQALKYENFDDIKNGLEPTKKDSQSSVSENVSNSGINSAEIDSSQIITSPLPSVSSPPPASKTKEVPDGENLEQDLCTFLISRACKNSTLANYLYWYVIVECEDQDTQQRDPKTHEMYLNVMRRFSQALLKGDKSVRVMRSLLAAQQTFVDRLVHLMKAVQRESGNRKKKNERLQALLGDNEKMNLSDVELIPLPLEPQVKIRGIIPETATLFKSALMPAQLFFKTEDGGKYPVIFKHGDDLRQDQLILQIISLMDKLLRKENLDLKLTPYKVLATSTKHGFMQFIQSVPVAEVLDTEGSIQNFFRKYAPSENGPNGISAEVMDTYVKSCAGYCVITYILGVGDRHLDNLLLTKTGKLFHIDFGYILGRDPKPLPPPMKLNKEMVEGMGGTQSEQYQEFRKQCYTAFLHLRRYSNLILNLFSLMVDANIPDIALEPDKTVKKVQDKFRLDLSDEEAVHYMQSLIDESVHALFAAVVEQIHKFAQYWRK

[8] = molecular target: CaMK1a (Homo sapiens, UniProt Q14012); assay: KiNativ, OCI cells live cell; type: cell-based; conditions: 2 h
Sequence of CaMK1a (Q14012 whole entry): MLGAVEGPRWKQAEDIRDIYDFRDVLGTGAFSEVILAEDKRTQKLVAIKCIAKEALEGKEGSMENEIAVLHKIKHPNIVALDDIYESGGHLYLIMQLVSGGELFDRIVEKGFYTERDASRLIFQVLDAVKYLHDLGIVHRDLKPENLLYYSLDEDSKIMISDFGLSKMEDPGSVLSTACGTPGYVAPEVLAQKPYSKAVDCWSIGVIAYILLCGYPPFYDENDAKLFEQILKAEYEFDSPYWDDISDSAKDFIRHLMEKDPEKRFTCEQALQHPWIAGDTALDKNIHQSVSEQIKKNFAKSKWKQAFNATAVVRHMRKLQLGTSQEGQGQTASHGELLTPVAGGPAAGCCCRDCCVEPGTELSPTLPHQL

[9] = molecular target: T2, FLT3 D835V (Homo sapiens, UniProt P36888, D835V); assay: KdELECT binding assay
T2 construct: purchased Eurofins DiscoverX

[10] = molecular target: NEK3 (Homo sapiens, UniProt P51956); assay: KiNativ, OCI cells live cell; type: cell-based; conditions: 2 h, labeling site Activation Loop, peptide […]
[11] = molecular target: SYK (Homo sapiens, UniProt P43405); assay: KiNativ, OCI cells live cell; type: cell-based
[12] = molecular target: BRAF (Homo sapiens, UniProt P15056); assay: KiNativ, OCI cells live cell; type: cell-based; conditions: 2 h, labeling site Lys2, peptide […]
Sequence of BRAF (P15056 whole entry): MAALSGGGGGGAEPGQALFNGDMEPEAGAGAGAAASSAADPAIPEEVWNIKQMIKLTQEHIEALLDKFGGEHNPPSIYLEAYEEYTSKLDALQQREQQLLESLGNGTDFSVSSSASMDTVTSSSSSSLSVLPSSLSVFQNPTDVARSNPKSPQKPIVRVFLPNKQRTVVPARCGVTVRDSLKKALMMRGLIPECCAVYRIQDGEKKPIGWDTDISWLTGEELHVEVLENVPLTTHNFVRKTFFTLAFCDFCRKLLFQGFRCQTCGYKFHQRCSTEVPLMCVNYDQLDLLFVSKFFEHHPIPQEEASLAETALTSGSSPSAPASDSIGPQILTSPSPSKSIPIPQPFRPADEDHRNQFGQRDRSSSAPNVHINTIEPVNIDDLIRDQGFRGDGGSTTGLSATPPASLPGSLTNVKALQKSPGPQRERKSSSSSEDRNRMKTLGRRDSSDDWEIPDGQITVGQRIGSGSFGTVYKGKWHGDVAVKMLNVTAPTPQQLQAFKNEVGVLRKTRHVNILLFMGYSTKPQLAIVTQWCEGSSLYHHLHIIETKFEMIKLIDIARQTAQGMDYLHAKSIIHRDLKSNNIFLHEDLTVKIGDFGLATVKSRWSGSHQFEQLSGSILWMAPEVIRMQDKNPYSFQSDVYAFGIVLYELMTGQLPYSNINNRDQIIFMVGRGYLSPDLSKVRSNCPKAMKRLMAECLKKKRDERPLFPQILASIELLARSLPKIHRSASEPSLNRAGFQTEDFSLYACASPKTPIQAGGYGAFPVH

[13] = molecular target: PHKg2 (Homo sapiens, UniProt P15735); assay: KiNativ, OCI cells live cell; type: cell-based; conditions: 2 h, labeling site Lys1, peptide […]
Sequence of PHKg2 (P15735 whole entry): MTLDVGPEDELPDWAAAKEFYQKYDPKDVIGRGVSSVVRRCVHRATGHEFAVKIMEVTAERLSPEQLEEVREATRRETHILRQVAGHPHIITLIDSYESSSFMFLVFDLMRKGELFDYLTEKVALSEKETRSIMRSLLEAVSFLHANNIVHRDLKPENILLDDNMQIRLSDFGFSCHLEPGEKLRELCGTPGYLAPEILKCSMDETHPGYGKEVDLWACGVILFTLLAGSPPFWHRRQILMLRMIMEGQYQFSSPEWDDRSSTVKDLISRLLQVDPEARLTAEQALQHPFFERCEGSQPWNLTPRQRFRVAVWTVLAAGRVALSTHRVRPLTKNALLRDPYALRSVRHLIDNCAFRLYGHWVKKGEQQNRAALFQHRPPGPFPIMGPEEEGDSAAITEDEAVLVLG

[14] = molecular target: PIP4K2A (Homo sapiens, UniProt P48426); assay: KiNativ, OCI cells live cell; type: cell-based; conditions: 2 h, labeling site ATP, peptide […]
[15] = molecular target: EphB3 (Homo sapiens, UniProt P54753); assay: KiNativ, OCI cells live cell; type: cell-based; conditions: 2 h, labeling site Activation Loop, peptide […]
[16] = molecular target: YANK3 (Homo sapiens, UniProt Q86UX6); assay: KiNativ, OCI cells live cell; type: cell-based; conditions: 2 h, labeling site Lys2, peptide […]
[17] = molecular target: NLK (Homo sapiens, UniProt Q9UBE8); assay: KiNativ, OCI cells live cell; type: cell-based; conditions: 2 h, labeling site Lys2, peptide […]
Sequence of NLK (Q9UBE8 whole entry): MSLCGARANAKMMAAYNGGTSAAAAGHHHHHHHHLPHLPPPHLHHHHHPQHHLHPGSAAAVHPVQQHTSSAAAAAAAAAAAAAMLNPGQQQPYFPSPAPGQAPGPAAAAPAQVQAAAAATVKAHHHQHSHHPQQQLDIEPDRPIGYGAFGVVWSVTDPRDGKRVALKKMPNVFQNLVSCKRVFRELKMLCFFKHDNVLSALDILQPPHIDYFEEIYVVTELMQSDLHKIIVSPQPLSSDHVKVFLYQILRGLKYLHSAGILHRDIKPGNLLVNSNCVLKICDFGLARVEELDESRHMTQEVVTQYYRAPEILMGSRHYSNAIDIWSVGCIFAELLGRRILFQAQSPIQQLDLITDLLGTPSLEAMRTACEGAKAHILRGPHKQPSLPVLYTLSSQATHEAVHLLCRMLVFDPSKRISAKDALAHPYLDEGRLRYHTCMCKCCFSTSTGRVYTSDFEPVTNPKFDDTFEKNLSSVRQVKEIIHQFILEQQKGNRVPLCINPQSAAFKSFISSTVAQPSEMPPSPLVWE

[18] = molecular target: T3, LATS2 (Homo sapiens, UniProt Q9NRM7); assay: KiNativ, OCI cells live cell; type: cell-based
T3 sequence (Q9NRM7 1-1088): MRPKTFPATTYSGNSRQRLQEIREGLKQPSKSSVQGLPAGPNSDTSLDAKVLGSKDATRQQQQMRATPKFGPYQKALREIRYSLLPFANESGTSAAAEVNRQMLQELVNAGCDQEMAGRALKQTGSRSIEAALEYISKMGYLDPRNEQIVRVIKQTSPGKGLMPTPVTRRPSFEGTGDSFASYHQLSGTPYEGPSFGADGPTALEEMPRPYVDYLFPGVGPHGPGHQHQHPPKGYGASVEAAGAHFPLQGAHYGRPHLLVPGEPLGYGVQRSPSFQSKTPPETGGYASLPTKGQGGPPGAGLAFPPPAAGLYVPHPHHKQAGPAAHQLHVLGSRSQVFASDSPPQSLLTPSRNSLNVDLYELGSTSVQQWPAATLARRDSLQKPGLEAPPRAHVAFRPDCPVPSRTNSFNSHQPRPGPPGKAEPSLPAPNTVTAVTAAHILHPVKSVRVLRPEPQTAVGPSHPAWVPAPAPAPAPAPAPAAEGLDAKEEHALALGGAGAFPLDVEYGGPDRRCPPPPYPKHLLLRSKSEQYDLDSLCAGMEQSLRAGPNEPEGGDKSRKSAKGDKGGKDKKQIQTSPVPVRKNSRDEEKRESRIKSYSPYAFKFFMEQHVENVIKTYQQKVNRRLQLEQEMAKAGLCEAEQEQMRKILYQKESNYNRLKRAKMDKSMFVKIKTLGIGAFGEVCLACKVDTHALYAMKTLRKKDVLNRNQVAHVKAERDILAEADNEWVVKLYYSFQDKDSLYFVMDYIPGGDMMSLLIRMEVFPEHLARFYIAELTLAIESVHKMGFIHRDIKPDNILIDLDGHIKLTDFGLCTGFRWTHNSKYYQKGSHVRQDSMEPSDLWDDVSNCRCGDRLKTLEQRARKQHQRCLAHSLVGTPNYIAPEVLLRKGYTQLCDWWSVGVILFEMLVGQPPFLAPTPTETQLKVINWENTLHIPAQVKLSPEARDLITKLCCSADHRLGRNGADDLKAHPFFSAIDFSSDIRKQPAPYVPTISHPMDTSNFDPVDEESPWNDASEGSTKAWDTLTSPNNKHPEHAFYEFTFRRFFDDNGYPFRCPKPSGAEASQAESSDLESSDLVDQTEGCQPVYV

[19] = molecular target: RAF1 (Homo sapiens, UniProt P04049); assay: KiNativ, OCI cells live cell; type: cell-based; conditions: 2 h, labeling site Lys2, peptide […]
Sequence of RAF1 (P04049 whole entry): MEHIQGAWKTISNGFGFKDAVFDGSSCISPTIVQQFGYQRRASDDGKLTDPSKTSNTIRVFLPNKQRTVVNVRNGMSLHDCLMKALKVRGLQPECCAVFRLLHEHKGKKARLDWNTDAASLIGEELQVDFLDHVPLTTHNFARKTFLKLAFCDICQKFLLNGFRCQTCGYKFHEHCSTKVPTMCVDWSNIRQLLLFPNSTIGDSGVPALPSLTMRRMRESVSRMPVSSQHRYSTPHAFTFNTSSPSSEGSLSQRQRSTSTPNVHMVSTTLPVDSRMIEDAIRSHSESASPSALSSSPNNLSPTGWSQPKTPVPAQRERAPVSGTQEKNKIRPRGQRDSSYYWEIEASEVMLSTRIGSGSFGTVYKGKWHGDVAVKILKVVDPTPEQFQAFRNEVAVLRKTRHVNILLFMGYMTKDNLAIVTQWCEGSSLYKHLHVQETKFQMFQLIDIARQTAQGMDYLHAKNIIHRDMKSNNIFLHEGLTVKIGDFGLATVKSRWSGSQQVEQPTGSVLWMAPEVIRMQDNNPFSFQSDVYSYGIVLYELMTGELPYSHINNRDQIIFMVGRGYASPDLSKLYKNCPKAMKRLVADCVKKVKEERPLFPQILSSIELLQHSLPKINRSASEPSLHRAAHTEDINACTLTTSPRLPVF

[20] = molecular target: T4, AURKB (Homo sapiens, UniProt Q96GD4); assay: KdELECT binding assay
T4 construct: purchased Eurofins DiscoverX
T4 sequence (Q96GD4 whole entry): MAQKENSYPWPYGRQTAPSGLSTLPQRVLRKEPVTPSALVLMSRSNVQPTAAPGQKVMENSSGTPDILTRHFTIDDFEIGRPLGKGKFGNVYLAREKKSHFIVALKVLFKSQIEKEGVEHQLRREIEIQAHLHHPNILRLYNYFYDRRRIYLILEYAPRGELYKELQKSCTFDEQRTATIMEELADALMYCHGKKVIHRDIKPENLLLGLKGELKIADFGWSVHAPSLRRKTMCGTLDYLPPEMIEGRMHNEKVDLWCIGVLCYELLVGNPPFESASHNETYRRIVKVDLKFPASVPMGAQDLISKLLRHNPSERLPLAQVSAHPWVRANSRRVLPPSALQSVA

Sequence of PITSLRE (P21127 whole entry): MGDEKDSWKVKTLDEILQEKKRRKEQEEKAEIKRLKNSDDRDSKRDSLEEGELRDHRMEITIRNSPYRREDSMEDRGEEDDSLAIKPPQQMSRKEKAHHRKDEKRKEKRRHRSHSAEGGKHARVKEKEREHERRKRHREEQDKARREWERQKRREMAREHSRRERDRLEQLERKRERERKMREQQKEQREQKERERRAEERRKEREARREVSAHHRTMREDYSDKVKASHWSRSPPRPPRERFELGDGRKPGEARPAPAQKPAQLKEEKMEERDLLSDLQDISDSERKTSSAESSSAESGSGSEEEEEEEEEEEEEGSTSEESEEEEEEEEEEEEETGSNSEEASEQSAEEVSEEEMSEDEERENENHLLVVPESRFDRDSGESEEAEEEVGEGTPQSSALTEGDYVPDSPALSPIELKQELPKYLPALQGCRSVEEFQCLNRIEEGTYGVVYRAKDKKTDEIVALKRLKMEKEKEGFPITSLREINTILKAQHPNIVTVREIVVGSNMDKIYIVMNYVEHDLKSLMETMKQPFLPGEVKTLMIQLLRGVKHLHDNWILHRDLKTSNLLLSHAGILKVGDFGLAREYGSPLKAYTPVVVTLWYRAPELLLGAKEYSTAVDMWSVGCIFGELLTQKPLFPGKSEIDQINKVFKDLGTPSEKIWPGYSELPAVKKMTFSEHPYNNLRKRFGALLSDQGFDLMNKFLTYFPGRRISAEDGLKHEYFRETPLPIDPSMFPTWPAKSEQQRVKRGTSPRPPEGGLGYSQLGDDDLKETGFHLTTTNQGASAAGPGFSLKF

CN1CCN(Cc2ccc(Nc3ncc(Cl)c(Nc4ccccc4S(=O)(=O)N(C)C)n3)cc2)CC1 [TP-0903]
inhibition at 0.1 µM [1]: 73.7%
inhibition at 0.1 µM [2]: -18.9%
inhibition at 0.1 µM [3]: 10%
Inhibition [4]: 43.9%
inhibition at 0.1 µM [5]: -4.4%
Inhibition [6]: 36.2%
inhibition at 0.1 µM ([7]; peptide TEDGGKYPVIFKHGDDLR): -16.8%
inhibition at 0.1 µM ([7]; peptide TEDGGKYPVIFKHGDDLRQDQLILQIISLMDK): -18.2%
inhibition at 0.1 µM ([8]; labeling site Lys1, peptide LVAIKCIAK): -6.6%
inhibition at 0.1 µM ([8]; labeling site Lys2, peptide DLKPENLLYYSLDEDSK): -19.1%
Kd [9]: 2.1 nM
inhibition at 0.1 µM [10]: -11.9%
Inhibition ([11]; labeling site Activation Loop, peptide AQTHGKWPVK): 39.8%
Inhibition ([11]; labeling site Activation Loop, peptide ISDFGLSKALR): 38.5%
Inhibition ([11]; labeling site Lys1, peptide TVAVKILK): 37.9%
inhibition at 0.1 µM [12]: -3.1%
inhibition at 0.1 µM [13]: -5.7%
inhibition at 0.1 µM [14]: -17.8%
inhibition at 0.1 µM [15]: 17.1%
inhibition at 0.1 µM [16]: 8.4%
inhibition at 0.1 µM [17]: -23%
Inhibition ([18]; labeling site Lys1, peptide VDTHALYAMKTLR): -1.0%
Inhibition ([18]; labeling site Lys2, peptide DIKPDNILIDLDGHIK): -30.2%
inhibition at 0.1 µM [19]: 7%
Kd [20]: < 5 nM
